According to ChEMBL document CHEMBL2010731, “Discovery of P2X3 selective antagonists for the treatment of chronic pain” (Bioorg Med Chem Lett, 2012):
Blank lines part the entries; values can stand above or below the compound they belong to.

Tests used:
[1] = Lipophilicity, log D of the compound at pH 7.4; format: physicochemical; conditions: buffer
[2] = AUC in rat at […], iv; format: ADME, organism-based; conditions: plasma
[3] = Ratio of drug level in brain to plasma in Sprague-Dawley rat; format: ADME; conditions: read-out: BPR
[4] = Intrinsic clearance in rat liver microsomes; format: ADME, Microsome; conditions: read-out: CLH
[5] = Half life in rat at […], iv; format: ADME, organism-based; conditions: in vivo
[6] = Cmax in rat at […], sc; format: ADME, organism-based; set-up: dose 5.9 umol/kg, route subcutaneous; conditions: in vivo
[7] = AUC in rat at […], sc; format: ADME, organism-based; conditions: plasma
[8] = Clearance in rat at […], iv; format: ADME, organism-based; conditions: in vivo
[9] = Intrinsic clearance in human liver microsomes at 1 uM; format: ADME, Microsome; conditions: read-out: CLH
[10] = Apparent permeability from apical to basal side of human Caco2 cells at 10 uM; format: ADME, cell-based; conditions: Caco-2
[11] = Cmax in rat at 58 umol/kg, po; format: ADME, organism-based; set-up: dose 58 umol/kg, route oral; conditions: in vivo
[12] = Clearance in dog hepatocytes assessed per 10^6 cells; format: ADME, cell-based, Canis lupus familiaris, Hepatocyte; conditions: read-out: CLH
[13] = Oral bioavailability in rat at 12 umol/kg; format: ADME, organism-based; conditions: in vivo
[14] = Oral bioavailability in rat at 58 umol/kg; format: ADME, organism-based; conditions: in vivo
[15] = AUC in rat at 12 umol/kg, po; format: ADME, organism-based; conditions: plasma
[16] = AUC in dog at […], iv; format: ADME, organism-based, Canis lupus familiaris; conditions: plasma
[17] = Drug excretion in rat faces at high dose, iv; format: ADME, Feces; conditions: faeces, read-out: Drug excretion
[18] = AUC in rat at 11 umol/kg, iv; format: ADME, organism-based; conditions: plasma
[19] = Half life in dog at […], iv; format: ADME, organism-based, Canis lupus familiaris; conditions: in vivo
[20] = AUC in rat at 58 umol/kg, po; format: ADME, organism-based; conditions: plasma
[21] = Drug excretion in iv dosed rat faces; format: ADME, organism-based, Feces; conditions: faeces, read-out: Drug excretion
[22] = Cmax in rat at 12 umol/kg, po; format: ADME, organism-based; set-up: dose 12 umol/kg, route oral; conditions: in vivo
[23] = Clearance in dog at […], iv; format: ADME, organism-based, Canis lupus familiaris; conditions: in vivo
[24] = Clearance in rat at 11 umol/kg, iv; format: ADME, organism-based; conditions: in vivo
[25] = Half life in rat at 11 umol/kg, iv; format: ADME, organism-based; conditions: in vivo

- logD [1]: 4.3
Compound: CC(C)N1Cc2c(NC(c3ccccc3)c3ccccc3)nc(N3CCOCC3)nc2C1=O

- AUC [2]: 0.7 µM·h
- Kp [3]: 0.02
- microsomal CLint [4]: 83 µL/min/mg
- half-life [5]: 0.9 h
- Cmax [6]: 1000 nM
- AUC [7]: 2.8 µM·h
- clearance [8]: 54 mL/min/kg
Compound: CC(=O)N1CCN(c2nc(NC(C)(C)Cc3ccc(Cl)cc3)c3c(n2)C(=O)N(C(C)C)C3)CC1

- microsomal CLint at 1 µM [9]: 6 µL/min/mg
Compound: CC(=O)N1CCN(c2nc(NCc3ccc(Cl)cc3)c3c(n2)C(=O)N(C(C)C)C3)CC1

- microsomal CLint at 1 µM [9]: 31 µL/min/mg
Compound: CC(=O)N1CCN(c2nc(NCc3ccc(C(F)(F)F)cc3)c3c(n2)C(=O)N(C(C)C)C3)CC1

- Papp A→B at 10 µM [10]: 2.9 ×10⁻⁶ cm/s
- microsomal CLint at 1 µM [9]: 4 µL/min/mg
Compound: CC(=O)N1CCN(c2nc(NCc3ccc(OC(F)(F)F)cc3)c3c(n2)C(=O)N(C(C)C)C3)CC1

- microsomal CLint at 1 µM [9]: 31 µL/min/mg
Compound: COc1cc(OC(F)(F)F)ccc1CNc1nc(N2CCN(C(C)=O)CC2)nc2c1CN(C(C)C)C2=O

- Papp A→B at 10 µM [10]: 4.5 ×10⁻⁶ cm/s
- microsomal CLint at 1 µM [9]: 22 µL/min/mg
Compound: CC(=O)N1CCN(c2nc(N[C@H](C)c3ccc(OC(F)(F)F)cc3)c3c(n2)C(=O)N(C(C)C)C3)CC1

- microsomal CLint at 1 µM [9]: 4 µL/min/mg
Compound: COc1ccc([C@@H](C)Nc2nc(N3CCN(C(C)=O)CC3)nc3c2CN(C(C)C)C3=O)cc1

- AUC [2]: 0.4 µM·h
- Cmax [11]: 6900 nM
- hepatocyte CLint [12]: 2.5 µL/min/1e6 cells
- bioavailability [13]: 16%
- bioavailability [14]: 62%
- AUC [15]: 0.4 µM·h
- AUC [16]: 4.8 µM·h
- dose excreted [17]: < 3%
- microsomal CLint [4]: 17 µL/min/mg
- half-life [5]: 0.5 h
- AUC [18]: 8.05 µM·h
- half-life [19]: 14.5 h
- AUC [20]: 1.8 µM·h
- dose excreted [21]: > 15%
- Cmax [22]: 100 nM
- logD [1]: 3
- clearance [23]: 8 mL/min/kg
- Papp A→B at 10 µM [10]: 2.4 ×10⁻⁶ cm/s
- clearance [8]: 88 mL/min/kg
- microsomal CLint at 1 µM [9]: 10 µL/min/mg
- clearance [24]: 22 mL/min/kg
- half-life [25]: 2 h
Compound: CCOc1ccc([C@@H](C)Nc2nc(N3CCN(C(C)=O)CC3)nc3c2CN(C(C)C)C3=O)cc1

- microsomal CLint [4]: 58 µL/min/mg
- microsomal CLint at 1 µM [9]: 10 µL/min/mg
Compound: CCOc1ccc([C@@H](CC)Nc2nc(N3CCN(C(C)=O)CC3)nc3c2CN(C(C)C)C3=O)cc1

- Papp A→B at 10 µM [10]: 2 ×10⁻⁶ cm/s
- microsomal CLint at 1 µM [9]: 5 µL/min/mg
Compound: CCOc1ccc([C@H](Nc2nc(N3CCN(C(C)=O)CC3)nc3c2CN(C(C)C)C3=O)C(F)(F)F)cc1

- Papp A→B at 10 µM [10]: 0.8 ×10⁻⁶ cm/s
- microsomal CLint at 1 µM [9]: 17 µL/min/mg
Compound: CCOc1ccc([C@@H](C)Nc2nc(N3CCN(C(C)=O)CC3)nc3c2CN(C(C)C)C3=O)cc1F

- microsomal CLint at 1 µM [9]: 7 µL/min/mg
Compound: CCOc1ncc([C@@H](C)Nc2nc(N3CCN(C(C)=O)CC3)nc3c2CN(C(C)C)C3=O)cc1F

- Papp A→B at 10 µM [10]: 0.1 ×10⁻⁶ cm/s
- microsomal CLint at 1 µM [9]: 11 µL/min/mg
Compound: CC(=O)N1CCN(c2nc(NCc3cnc4ccccc4c3)c3c(n2)C(=O)N(C(C)C)C3)CC1

- Papp A→B at 10 µM [10]: 0.6 ×10⁻⁶ cm/s
- microsomal CLint at 1 µM [9]: 16 µL/min/mg
Compound: CC(=O)N1CCN(c2nc(NCc3cc4ccccc4cn3)c3c(n2)C(=O)N(C(C)C)C3)CC1

- Papp A→B at 10 µM [10]: 2.9 ×10⁻⁶ cm/s
- microsomal CLint at 1 µM [9]: 19 µL/min/mg
Compound: CC(=O)N1CCN(c2nc3c(c(N(C)Cc4cc5ccccc5cn4)n2)CN(C(C)C)C3=O)CC1
